Measured values taken from PMC12616683, “In Vivo Atlas of Neuroprotective Cyclic Dipeptides Derived from Food Gelatin Using Peptidomics and Feature-Based Molecular Networking” (Journal of Agricultural and Food Chemistry, 2025).
“And” between values parts separate entries of the source, which are not always exact repeats. Equal values may be shown once. Read-outs that look alike come from different tables or passages of the source. Peptide text beside a SMILES is read from it.

What was measured:
[1] = test system: HT-22 cells; settings: 20 mM Glu, 24 h
Procedure: HT-22 cells were cultured in DMEM medium with 10% fetal bovine serum (Gibco), 1% penicillin, and streptomycin (Gibco) at 37 °C. HT-22 cells were seeded at a density of 1 × 10^4 cells per well in 96-well plates and cultured in DMEM medium containing 10% fetal bovine serum and 1% penicillin–streptomycin at 37 °C with 5% CO2.

[2] = set-up: method as in number not printed ("A study in humans"); settings: humans; ref number not printed ("A study in humans"); cited from earlier work
[3] = set-up: method as in number not printed ("It was reported"); settings: linear dipeptide; ref number not printed ("It was reported"); cited from earlier work
[4] = set-up: method as in number not printed ("the literature reports"); settings: mice; ref number not printed ("the literature reports"); cited from earlier work
[5] = test system: H2O2-induced HT-22 cells; assay: Neuroprotection in H2O2-injured HT-22 cells (CCK-8 cell viability); settings: compound 50 μM; H2O2-only model (0 μM) 48.645±0.347
[6] = Concentrations of CDPs in stomach, small intestine and cecum contents after oral DHG (targeted spatiotemporal metabolomics); assay type: in vivo, C57 mice
Procedure: The supernatant was dried using N2.
For gastrointestinal content analysis, freeze-dried powders (1 mg each) of stomach, small intestine, and cecum contents collected over the 0–24 h postadministration period were accurately weighed. The samples were extracted using the same pretreatment procedure as applied for DHG, namely, ultrasonication with 75% methanol for 30 min at room temperature, followed by centrifugation (13,500 rpm, 10 min). The supernatants were collected, dried under nitrogen, and reconstituted in 75% methanol for LC–MS analysis. Quantitation was performed against the 12-point calibration curves established above, ensuring consistency with the DHG quantitation workflow. Samples from different time points were analyzed individually to characterize the temporal distribution of CDPs within each gastrointestinal compartment.

[7] = test system: Glu-induced HT-22 cells; assay: Neuroprotection in Glu-injured HT-22 cells (CCK-8 cell viability); settings: for cell viability in Glu-injured HT-22 cells: 50 μM (stated for cyclo(Hyp-Ala)), 4 h pretreatment, then 20 mM Glu 24 h, model group 40.759 ± 1.939%; for Cell viability(%) in Glu-induced HT-22 cells: Glu-only model (0 μM) 40.759±1.939
[8] = Serum pharmacokinetics of CDPs after oral administration of DHG (targeted LC-MS, noncompartmental analysis); settings: for C max / AUC0–24h / T max: serum, mice
[9] = FBMN analysis of short peptides in small intestine contents and serum after oral DHG; settings: serum, time points 0.5-4 h after oral DHG
[10] = mouse, in vivo, po
[11] = mouse, in vivo, po, 1000 mg/kg

Row | SMILES | Cell viability(%) in H2O2-induced HT-22 cells [5] | cecum concentration at 8 h compared with peak levels in stomach and small intestine [6] | cell viability in Glu-injured HT-22 cells [7] | Cell viability(%) in Glu-induced HT-22 cells ([7]; compound 25 μM) | AUC0–24h ([8]; oral DHG 1000 mg/kg) | C max ([8]; oral DHG 1000 mg/kg) | T max ([8]; oral DHG 1000 mg/kg) | other results
1 | N[C@@H](CCC(=O)O)C(=O)O [Glu, Glutamate] | – | – | – | – | – | – | – | HT22 cell viability after Glu exposure [1]: 40–60%
2 | NCC(=O)N1CCC[C@H]1C(=O)O [Gly-Pro] (H-Gly-Pro-OH) | – | – | – | – | – | – | – | T max, C max, and AUC0–4h compared with cyclo(Gly-Pro) [2]: lower; time to decrease to a negligible level after oral administration [3]: ≤ 1 h
3 | O=C(O)[C@@H]1C[C@@H](O)CN1C(=O)[C@@H]1CCCN1 [Pro-Hyp] (HELM PEPTIDE1{P.[Hyp]}$$$$V2.0) | – | – | – | – | – | – | – | time to drop to basal levels [4]: ≤ 3 h
4 | O=C1NCC(=O)N2CC(O)CC12 (stereo not drawn) [cyclo(Hyp-Gly), cyclo(Gly-Hyp)] | 62.961±1.166% | surpassed the peak levels observed in the stomach and small intestine | 63.703 ± 1.518 % cell viability | 61.970±4.223% | 7371.695 ng·h/mL and 7371.6951 ng·h/mL | 683.7471 ng/mL | 2 h | concentration in the cecum ([6]; cecum contents at 8 h): 358.966 ng/g; concentration in the small intestine ([6]; small intestine contents at 1 h): 354.578 ng/g; concentration in the stomach ([6]; stomach contents at 0.5 h): 265.229 ng/g; Cell viability(%) in Glu-induced HT-22 cells ([7]; compound 50 μM): 53.703±1.518%; C max ([8]; oral DHG): 684 ng/mL
5 | O=C1N[C@@H](Cc2ccccc2)C(=O)N2C[C@@H](O)C[C@@H]12 [cyclo(Phe-Hyp)] | 63.241±3.395% | surpassed the peak levels observed in the stomach and small intestine | 60.206 ± 4.409 % cell viability | 56.084±2.124% | 263.2271 ng·h/mL | 51.2931 ng/mL | 1 h | time detected in serum (FBMN) [9]: 0.5 to 4 h
6 | O=C1[C@@H]2C[C@@H](O)CN2C(=O)[C@@H]2CCCN12 [cyclo(Pro-Hyp)] | 67.606±2.468% | surpassed the peak levels observed in the stomach and small intestine | 60.071 ± 3.101 % cell viability | 53.105±7.712% | 2126.6252 ng·h/mL | 408.1371 ng/mL | 1 h | time remained detectable in serum ([8]; serum/blood after oral DHG, sampled to 24 h): 24 h
7 | O=C1N[C@@H](Cc2ccccc2)C(=O)N2CCC[C@@H]12 [cyclo(Pro-Phe)] | – | – | – | – | – | – | – | Peptide signal (feature intensity) in the small intestine, 30 min [10]: 2.06E+05; Peptide signal (feature intensity) in the small intestine, 60 min [10]: 0.00E+00; Peptide signal (feature intensity) in the small intestine, 120 min [10]: 2.49E+05; Peptide signal (feature intensity) in the small intestine, 240 min [10]: 2.18E+05; AUC0–24h [11]: 19.8164 ng·h/mL; C max [11]: 11.0670 ng/mL; T max [11]: 0.5 h
